These compounds were tested on CAL-85-1 (assay: normalised viability (% of control), CellTiter-Blue; higher = more viable cells (about 100 = DMSO control)). Details: 30 nM; incubation time: 72 h.
In short: (§1)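 Compound dissolved in 5 µl medium was pre-loaded into 384-well plates, and breast cancer cell lines in 20 µl suspension were seeded on top and incubated 72 h. After adding 2.5 µl CellTiter-Blue reagent for 2 h at 37 °C, fluorescence was read at 560/590 nm. Plates were normalised to vehicle (100) and a positive kill control (0), with Z'-factor quality control. Each value is normalised viability at a single listed concentration from the series.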
NCC(=O)CCC(=O)O [Aminolevulinic acid] showed a normalised viability of 87.1%.

Same assay, conditions: 100 nM; incubation time: 72 h
In the case of O=C1CCC(N2C(=O)c3ccccc3C2=O)C(=O)N1 (stereo unspecified) [Thalidomide], the normalised viability is reported as 101%.
C=C(c1ccc(C(=O)O)cc1)c1cc2c(cc1C)C(C)(C)CCC2(C)C [Bexarotene] gave a normalised viability of 92%.
For CCC1(c2ccc(N)cc2)CCC(=O)NC1=O (stereo unspecified) [Aminoglutethimide], the normalised viability was 103%.
Work on Clc1ccc(Nc2nnc(Cc3ccncc3)c3ccccc23)cc1 [Vatalanib] yielded a normalised viability of 93.4%.
For NCC(=O)CCC(=O)O [Aminolevulinic acid], the normalised viability was 98.8%.

These compounds were tested on CAL-148 in the same assay as above. Details: 0.3 nM; incubation time: 72 h.
In short: as §1
Work on CCN(CCCOc1ccc2c(Nc3cc(CC(=O)Nc4cccc(F)c4)[nH]n3)ncnc2c1)CCOP(=O)(O)O [Barasertib] yielded a normalised viability of 98.4%.
CO[C@H]1/C=C\C=C(/C)C(=O)NC2=CC(=O)C(NCCN(C)C)=C(C[C@@H](C)C[C@H](OC)[C@H](O)[C@@H](C)/C=C(\C)[C@@H]1OC(N)=O)C2=O [Alvespimycin] was tested, and the normalised viability was 107%.
NC(=O)Nc1cc(-c2cccc(F)c2)sc1C(=O)N[C@H]1CCCNC1 [AZD 7762] gave a normalised viability of 110%.

Same assay, conditions: 3 nM; incubation time: 72 h
Compound O=C1CCC(N2C(=O)c3ccccc3C2=O)C(=O)N1 (stereo unspecified) [Thalidomide] has a normalised viability of 115%.
C=C(c1ccc(C(=O)O)cc1)c1cc2c(cc1C)C(C)(C)CCC2(C)C [Bexarotene] was tested, and the normalised viability was 110%.
Work on CCC1(c2ccc(N)cc2)CCC(=O)NC1=O (stereo unspecified) [Aminoglutethimide] yielded a normalised viability of 108%.
Work on Clc1ccc(Nc2nnc(Cc3ccncc3)c3ccccc23)cc1 [Vatalanib] yielded a normalised viability of 76.1%.
Compound NCC(=O)CCC(=O)O [Aminolevulinic acid] has a normalised viability of 93.8%.
Compound CCN(CCCOc1ccc2c(Nc3cc(CC(=O)Nc4cccc(F)c4)[nH]n3)ncnc2c1)CCOP(=O)(O)O [Barasertib] has a normalised viability of 105%.
With CO[C@H]1/C=C\C=C(/C)C(=O)NC2=CC(=O)C(NCCN(C)C)=C(C[C@@H](C)C[C@H](OC)[C@H](O)[C@@H](C)/C=C(\C)[C@@H]1OC(N)=O)C2=O [Alvespimycin] the normalised viability was 102%.
Compound NC(=O)Nc1cc(-c2cccc(F)c2)sc1C(=O)N[C@H]1CCCNC1 [AZD 7762] has a normalised viability of 106%.

Same assay, conditions: 10 nM; incubation time: 72 h
Compound CCN(CCCOc1ccc2c(Nc3cc(CC(=O)Nc4cccc(F)c4)[nH]n3)ncnc2c1)CCOP(=O)(O)O [Barasertib] has a normalised viability of 39.7%.
CO[C@H]1/C=C\C=C(/C)C(=O)NC2=CC(=O)C(NCCN(C)C)=C(C[C@@H](C)C[C@H](OC)[C@H](O)[C@@H](C)/C=C(\C)[C@@H]1OC(N)=O)C2=O [Alvespimycin] gave a normalised viability of 101%.
For NC(=O)Nc1cc(-c2cccc(F)c2)sc1C(=O)N[C@H]1CCCNC1 [AZD 7762], the normalised viability was 111%.

Same assay, conditions: 30 nM; incubation time: 72 h
With O=C1CCC(N2C(=O)c3ccccc3C2=O)C(=O)N1 (stereo unspecified) [Thalidomide] the normalised viability was 116%.
C=C(c1ccc(C(=O)O)cc1)c1cc2c(cc1C)C(C)(C)CCC2(C)C [Bexarotene] showed a normalised viability of 92.7%.
CCC1(c2ccc(N)cc2)CCC(=O)NC1=O (stereo unspecified) [Aminoglutethimide] showed a normalised viability of 105%.
For Clc1ccc(Nc2nnc(Cc3ccncc3)c3ccccc23)cc1 [Vatalanib], the normalised viability was 83.6%.
NCC(=O)CCC(=O)O [Aminolevulinic acid] was tested, and the normalised viability was 101%.

Same assay, conditions: 100 nM; incubation time: 72 h
In the case of O=C1CCC(N2C(=O)c3ccccc3C2=O)C(=O)N1 (stereo unspecified) [Thalidomide], the normalised viability is reported as 116%.
In the case of C=C(c1ccc(C(=O)O)cc1)c1cc2c(cc1C)C(C)(C)CCC2(C)C [Bexarotene], the normalised viability is reported as 99.8%.
CCC1(c2ccc(N)cc2)CCC(=O)NC1=O (stereo unspecified) [Aminoglutethimide] showed a normalised viability of 106%.
Compound Clc1ccc(Nc2nnc(Cc3ccncc3)c3ccccc23)cc1 [Vatalanib] has a normalised viability of 82.2%.
Work on NCC(=O)CCC(=O)O [Aminolevulinic acid] yielded a normalised viability of 98.8%.

The compounds below were run on CAL-51 in the same assay as above. Details: 0.3 nM; incubation time: 72 h.
In short: as §1
In the case of CCN(CCCOc1ccc2c(Nc3cc(CC(=O)Nc4cccc(F)c4)[nH]n3)ncnc2c1)CCOP(=O)(O)O [Barasertib], the normalised viability is reported as 106%.
With CO[C@H]1/C=C\C=C(/C)C(=O)NC2=CC(=O)C(NCCN(C)C)=C(C[C@@H](C)C[C@H](OC)[C@H](O)[C@@H](C)/C=C(\C)[C@@H]1OC(N)=O)C2=O [Alvespimycin] the normalised viability was 97%.
NC(=O)Nc1cc(-c2cccc(F)c2)sc1C(=O)N[C@H]1CCCNC1 [AZD 7762] was tested, and the normalised viability was 101%.

Same assay, conditions: 3 nM; incubation time: 72 h
In the case of O=C1CCC(N2C(=O)c3ccccc3C2=O)C(=O)N1 (stereo unspecified) [Thalidomide], the normalised viability is reported as 90.8%.
Compound C=C(c1ccc(C(=O)O)cc1)c1cc2c(cc1C)C(C)(C)CCC2(C)C [Bexarotene] has a normalised viability of 82%.
With CCC1(c2ccc(N)cc2)CCC(=O)NC1=O (stereo unspecified) [Aminoglutethimide] the normalised viability was 87.2%.
Clc1ccc(Nc2nnc(Cc3ccncc3)c3ccccc23)cc1 [Vatalanib] was tested, and the normalised viability was 104%.
In the case of NCC(=O)CCC(=O)O [Aminolevulinic acid], the normalised viability is reported as 105%.
CCN(CCCOc1ccc2c(Nc3cc(CC(=O)Nc4cccc(F)c4)[nH]n3)ncnc2c1)CCOP(=O)(O)O [Barasertib] gave a normalised viability of 103%.
CO[C@H]1/C=C\C=C(/C)C(=O)NC2=CC(=O)C(NCCN(C)C)=C(C[C@@H](C)C[C@H](OC)[C@H](O)[C@@H](C)/C=C(\C)[C@@H]1OC(N)=O)C2=O [Alvespimycin] was tested, and the normalised viability was 96%.
NC(=O)Nc1cc(-c2cccc(F)c2)sc1C(=O)N[C@H]1CCCNC1 [AZD 7762] showed a normalised viability of 93.7%.

Same assay, conditions: 10 nM; incubation time: 72 h
In the case of CCN(CCCOc1ccc2c(Nc3cc(CC(=O)Nc4cccc(F)c4)[nH]n3)ncnc2c1)CCOP(=O)(O)O [Barasertib], the normalised viability is reported as 83.6%.
CO[C@H]1/C=C\C=C(/C)C(=O)NC2=CC(=O)C(NCCN(C)C)=C(C[C@@H](C)C[C@H](OC)[C@H](O)[C@@H](C)/C=C(\C)[C@@H]1OC(N)=O)C2=O [Alvespimycin] gave a normalised viability of 86.8%.
NC(=O)Nc1cc(-c2cccc(F)c2)sc1C(=O)N[C@H]1CCCNC1 [AZD 7762] gave a normalised viability of 102%.

Same assay, conditions: 30 nM; incubation time: 72 h
O=C1CCC(N2C(=O)c3ccccc3C2=O)C(=O)N1 (stereo unspecified) [Thalidomide] showed a normalised viability of 90.7%.
C=C(c1ccc(C(=O)O)cc1)c1cc2c(cc1C)C(C)(C)CCC2(C)C [Bexarotene] showed a normalised viability of 88.7%.
